Data: patent US10882871B2, “18/19F-labelled compounds which target the prostate specific membrane antigen” (BRITISH COLUMBIA CANCER AGENCY BRANCH, priority 2016, dated 2021)
Values joined by “and” are separate entries in the source; they are usually repeats but may differ in a detail not shown here. Equal values may be shown once.

Tested on: tumors derived from LNCaP cells
Test: PET/CT imaging and biodistribution of F-18 labeled HTK-01069 and HTK-01070 in tumor-bearing mice
Type: in vivo, mouse (NODSCID 1L2RγKO male mice)
Procedure: LNCap cell line used in the tumor model was obtained commercially from ATTC (LNCaP clone FGC, CRL-1740). It was established from a metastatic site of left supraclavicular lymph node of human prostatic adenocarcinoma. Cells were cultured in PRMI 1640 (StemCell Technologies, Vancouver, BC) supplemented by 10% FBS, 100 U/mL penicillin and 100 μg/mL streptomycin at 37° C. in a humidified incubator containing 5% CO2. Cells grown to 80-90% confluence were then washed with sterile phosphate-buffered saline (1×PBS pH 7.4) and trypsinization. The collected cells number was counted with Hemacytometer (Hausser Scientific).
Tumor implantation: Imaging and biodistribution experiments were performed using NODSCID 1L2RγKO male mice. Three or four mice in each cage equipped with enrichments. The mice were maintained and the experiments were conducted in according to the guidelines established by Canadian Council on Animal Care and approved by Animal Ethics Committee of the University of British Columbia. Mice were housed under pathogen-free conditions and kept on twelve hours light and twelve hours dark cycle in the Animal Research Centre, British Columbia Cancer Research Centre, Vancouver, Canada.
Mice were anesthetized by inhalation with 2.5% isoflurane in 2.0 L/min of oxygen during cells implantation. Mice were implanted subcutaneously with 1×10^7 LNCaP cells behind left shoulder. Mice were imaged or used in biodistribution studies when the tumor grew up to reach 5-8 mm in diameter during 5-6 weeks.
PET/CT Imaging: PET imaging experiments were conducted using Siemens inveon micro PET/CT scanner. Each tumor bearing mouse was injected ˜6.44 MBq of F-18 labeled HTK-01069 and ˜7.08 MBq of F-18 labeled HTK-01070 through the tail vein under anesthesia. After one hour, the mice were sedated again with 2% isoflurane inhalation and positioned in the scanner. Static PET imaging was performed to determined activity uptake of tumor and other organs. A CT scan was obtained for localization and attenuation correction after segmentation for reconstructing the PET images. The data was acquired by scanning the mice for 10 minutes each. The mice were kept warm by a heating pad during acquisition. The mice were euthanized after imaging and followed by biodistribution. Please see FIGS. 2 and 3 of this specification for reconstructed PET images for 1L2RγKO mice injected with HTK-01069 and HTK-01070 respectively.
Blood was withdrawn immediately, and the organs of interest were quickly removed. Each organ was weighed and the tissue radioactivity was measured with a Cobra II gamma counter (Packard), normalized to the injected dose using a standard curve and expressed as the percentage of the injected dose per gram of tissue (% ID/g). Biodistribution data are shown for HTK-01069 in Tables 5, 6 and 7 and HTK-01070 in Tables 8, 9, 10 of the specification respectively.

[1] = 1 h p.i. with co-injection of 0.5 mg DCFPyL, Avg
[2] = 1 h p.i. with co-injection of 0.5 mg DCFPyL, single mice

C[N+](C)(Cc1cn(Cc2ccc(C(=O)NCCCC[C@H](NC(=O)N[C@@H](CCC(=O)O)C(=O)O)C(=O)O)cc2)nn1)C[B-](F)(F)[18F] [F-18 HTK-01070]
Biodistribution Adrenals [1]: 0.20 % ID/g
Biodistribution Blood [1]: 0.46 % ID/g
Biodistribution Bone [1]: 0.12 % ID/g
Biodistribution Brain [1]: 0.02 % ID/g
Biodistribution Fat [1]: 0.04 % ID/g
Biodistribution Heart [1]: 0.22 % ID/g
Biodistribution Intestine [1]: 0.31 % ID/g
Biodistribution Kidney [1]: 2.11 % ID/g
Biodistribution Liver [1]: 0.06 % ID/g
Biodistribution Lung [1]: 0.09 % ID/g
Biodistribution Muscle [1]: 0.30 % ID/g
Biodistribution Pancreas [1]: 1.76 % ID/g
Biodistribution Seminal [1]: 1.87 % ID/g
Biodistribution Spleen [1]: 0.06 % ID/g
Biodistribution Stomach [1]: 0.09 % ID/g
Biodistribution Tail [1]: 0.38 % ID/g
Biodistribution Testes [1]: 0.08 % ID/g
Biodistribution Tumour [1]: 0.27 % ID/g
Biodistribution Adrenals [2]: 0.23 % ID/g and 0.26 % ID/g and 0.17 % ID/g and 0.16 % ID/g
Biodistribution Brain [2]: 0.02 % ID/g
Biodistribution Heart [2]: 0.21 % ID/g and 0.27 % ID/g and 0.20 % ID/g and 0.19 % ID/g
Biodistribution Intestine [2]: 0.31 % ID/g and 0.30 % ID/g and 0.28 % ID/g and 0.32 % ID/g
Biodistribution Kidney [2]: 2.40 % ID/g and 2.05 % ID/g and 1.96 % ID/g
Biodistribution Liver [2]: 0.06 % ID/g and 0.08 % ID/g and 0.07 % ID/g and 0.05 % ID/g
Biodistribution Lung [2]: 0.11 % ID/g and 0.10 % ID/g and 0.07 % ID/g and 0.08 % ID/g
Biodistribution Muscle [2]: 0.31 % ID/g and 0.38 % ID/g and 0.23 % ID/g and 0.29 % ID/g
Biodistribution Pancreas [2]: 1.92 % ID/g and 1.65 % ID/g and 1.88 % ID/g and 1.57 % ID/g
Biodistribution Spleen [2]: 0.06 % ID/g and 0.05 % ID/g
Biodistribution Stomach [2]: 0.09 % ID/g and 0.14 % ID/g and 0.07 % ID/g
Biodistribution Tail [2]: 0.45 % ID/g and 0.35 % ID/g and 0.36 % ID/g
Biodistribution Testes [2]: 0.09 % ID/g and 0.10 % ID/g and 0.06 % ID/g
Biodistribution Tumour [2]: 0.35 % ID/g and 0.26 % ID/g and 0.21 % ID/g
Biodistribution Adrenals (1 h p.i., Avg): 4.65 % ID/g
Biodistribution Blood (1 h p.i., Avg): 0.52 % ID/g
Biodistribution Bone (1 h p.i., Avg): 0.44 % ID/g
Biodistribution Brain (1 h p.i., Avg): 0.04 % ID/g
Biodistribution Fat (1 h p.i., Avg): 0.73 % ID/g
Biodistribution Heart (1 h p.i., Avg): 0.33 % ID/g
Biodistribution Intestine (1 h p.i., Avg): 0.33 % ID/g
Biodistribution Kidney (1 h p.i., Avg): 71.70 % ID/g
Biodistribution Liver (1 h p.i., Avg): 1.69 % ID/g
Biodistribution Lung (1 h p.i., Avg): 1.39 % ID/g
Biodistribution Muscle (1 h p.i., Avg): 0.23 % ID/g
Biodistribution Pancreas (1 h p.i., Avg): 0.33 % ID/g
Biodistribution Seminal (1 h p.i., Avg): 3.13 % ID/g
Biodistribution Spleen (1 h p.i., Avg): 5.01 % ID/g
Biodistribution Stomach (1 h p.i., Avg): 0.10 % ID/g
Biodistribution Tail (1 h p.i., Avg): 0.76 % ID/g
Biodistribution Testes (1 h p.i., Avg): 0.67 % ID/g
Biodistribution Tumour (1 h p.i., Avg): 8.28 % ID/g
Biodistribution Blood (1 h p.i., single mice): 0.46 % ID/g and 0.63 % ID/g and 0.50 % ID/g and 0.51 % ID/g
Biodistribution Bone (1 h p.i., single mice): 0.37 % ID/g and 0.33 % ID/g and 0.58 % ID/g and 0.52 % ID/g and 0.38 % ID/g and 0.45 % ID/g
Biodistribution Brain (1 h p.i., single mice): 0.03 % ID/g and 0.04 % ID/g and 0.05 % ID/g
Biodistribution Heart (1 h p.i., single mice): 0.36 % ID/g and 0.47 % ID/g and 0.37 % ID/g and 0.27 % ID/g and 0.24 % ID/g and 0.28 % ID/g
Biodistribution Intestine (1 h p.i., single mice): 0.26 % ID/g and 0.32 % ID/g and 0.42 % ID/g and 0.37 % ID/g and 0.31 % ID/g
Biodistribution Kidney (1 h p.i., single mice): 62.45 % ID/g and 54.11 % ID/g and 52.66 % ID/g and 91.10 % ID/g and 76.59 % ID/g and 93.32 % ID/g
Biodistribution Liver (1 h p.i., single mice): 1.51 % ID/g and 1.53 % ID/g and 1.65 % ID/g and 1.90 % ID/g and 1.60 % ID/g and 1.94 % ID/g
Biodistribution Lung (1 h p.i., single mice): 1.32 % ID/g and 1.35 % ID/g and 1.24 % ID/g and 1.21 % ID/g and 1.59 % ID/g and 1.61 % ID/g
Biodistribution Muscle (1 h p.i., single mice): 0.28 % ID/g and 0.21 % ID/g and 0.24 % ID/g and 0.17 % ID/g and 0.25 % ID/g and 0.22 % ID/g
Biodistribution Pancreas (1 h p.i., single mice): 0.30 % ID/g and 0.33 % ID/g and 0.35 % ID/g and 0.28 % ID/g and 0.32 % ID/g and 0.41 % ID/g
Biodistribution Spleen (1 h p.i., single mice): 5.58 % ID/g and 4.75 % ID/g and 5.97 % ID/g and 4.51 % ID/g and 4.95 % ID/g and 4.31 % ID/g
Biodistribution Stomach (1 h p.i., single mice): 0.08 % ID/g and 0.09 % ID/g and 0.10 % ID/g and 0.16 % ID/g and 0.12 % ID/g
Biodistribution Testes (1 h p.i., single mice): 0.94 % ID/g and 0.79 % ID/g and 0.49 % ID/g and 0.57 % ID/g and 0.58 % ID/g and 0.64 % ID/g
Biodistribution Tumour (1 h p.i., single mice): 7.56 % ID/g and 10.45 % ID/g and 8.06 % ID/g and 8.60 % ID/g and 8.31 % ID/g and 6.70 % ID/g
Biodistribution Adrenals (2 h p.i., Avg): 1.79 % ID/g
Biodistribution Blood (2 h p.i., Avg): 0.16 % ID/g
Biodistribution Bone (2 h p.i., Avg): 0.10 % ID/g
Biodistribution Brain (2 h p.i., Avg): 0.02 % ID/g
Biodistribution Fat (2 h p.i., Avg): 0.38 % ID/g
Biodistribution Heart (2 h p.i., Avg): 0.47 % ID/g
Biodistribution Intestine (2 h p.i., Avg): 0.25 % ID/g
Biodistribution Kidney (2 h p.i., Avg): 42.78 % ID/g
Biodistribution Liver (2 h p.i., Avg): 0.05 % ID/g
Biodistribution Lung (2 h p.i., Avg): 0.09 % ID/g
Biodistribution Muscle (2 h p.i., Avg): 0.35 % ID/g
Biodistribution Pancreas (2 h p.i., Avg): 1.50 % ID/g
Biodistribution Seminal (2 h p.i., Avg): 6.41 % ID/g
Biodistribution Spleen (2 h p.i., Avg): 0.17 % ID/g
Biodistribution Stomach (2 h p.i., Avg): 1.30 % ID/g
Biodistribution Tail (2 h p.i., Avg): 0.56 % ID/g
Biodistribution Testes (2 h p.i., Avg): 0.28 % ID/g
Biodistribution Tumour (2 h p.i., Avg): 6.84 % ID/g
Biodistribution Brain (2 h p.i., single mice): 0.02 % ID/g and 0.03 % ID/g
Biodistribution Heart (2 h p.i., single mice): 0.32 % ID/g and 0.58 % ID/g and 0.55 % ID/g and 0.44 % ID/g and 0.46 % ID/g
Biodistribution Intestine (2 h p.i., single mice): 0.21 % ID/g and 0.23 % ID/g and 0.26 % ID/g and 0.24 % ID/g and 0.32 % ID/g
Biodistribution Liver (2 h p.i., single mice): 0.04 % ID/g and 0.06 % ID/g and 0.05 % ID/g and 0.07 % ID/g
Biodistribution Muscle (2 h p.i., single mice): 0.31 % ID/g and 0.39 % ID/g and 0.27 % ID/g and 0.33 % ID/g and 0.44 % ID/g
Biodistribution Pancreas (2 h p.i., single mice): 1.30 % ID/g and 1.76 % ID/g and 1.41 % ID/g and 1.23 % ID/g and 1.80 % ID/g
Biodistribution Testes (2 h p.i., single mice): 0.23 % ID/g and 0.34 % ID/g and 0.26 % ID/g and 0.19 % ID/g and 0.36 % ID/g
Biodistribution Tumour (2 h p.i., single mice): 6.12 % ID/g and 6.47 % ID/g and 7.93 % ID/g
